# Molecular target: ERBB3 (Homo sapiens, UniProt P21860)
# Assay: KINOMEscan competition binding
# Conditions: read-out: %Inh ERBB3
row,SMILES,inhibition at 1 µM [%]
1,O=c1cc(N2CCOCC2)nc2n(Cc3cccc(Cl)c3Cl)c(C3CC3)nn12 [UNC10225469A],9
2,Cn1cc(-c2cnc(N)c3c(-c4ccc5c(c4)CCN5C(=O)Cc4ccccc4)csc23)cn1 [UNC10225012A],4
3,CS(=O)(=O)Cc1ccc(Nc2nccc(-c3c(-c4cccc(NC(=O)C5CCCCC5)c4)nn4ncccc34)n2)cc1 [UNC10225159A],22
4,COc1cccc(OC)c1C(=O)Nc1cccc(-c2nn3ccccc3c2-c2ccnc(Nc3cccc(F)c3)n2)c1 [UNC10225310A],0
5,Cc1ccc(NC(=O)Nc2cccc(C(F)(F)F)c2)cc1 [UNC10225187A],17

# Molecular target: T1, LATS2 (Homo sapiens, UniProt Q9NRM7)
# T1 sequence (Q9NRM7 1-1088): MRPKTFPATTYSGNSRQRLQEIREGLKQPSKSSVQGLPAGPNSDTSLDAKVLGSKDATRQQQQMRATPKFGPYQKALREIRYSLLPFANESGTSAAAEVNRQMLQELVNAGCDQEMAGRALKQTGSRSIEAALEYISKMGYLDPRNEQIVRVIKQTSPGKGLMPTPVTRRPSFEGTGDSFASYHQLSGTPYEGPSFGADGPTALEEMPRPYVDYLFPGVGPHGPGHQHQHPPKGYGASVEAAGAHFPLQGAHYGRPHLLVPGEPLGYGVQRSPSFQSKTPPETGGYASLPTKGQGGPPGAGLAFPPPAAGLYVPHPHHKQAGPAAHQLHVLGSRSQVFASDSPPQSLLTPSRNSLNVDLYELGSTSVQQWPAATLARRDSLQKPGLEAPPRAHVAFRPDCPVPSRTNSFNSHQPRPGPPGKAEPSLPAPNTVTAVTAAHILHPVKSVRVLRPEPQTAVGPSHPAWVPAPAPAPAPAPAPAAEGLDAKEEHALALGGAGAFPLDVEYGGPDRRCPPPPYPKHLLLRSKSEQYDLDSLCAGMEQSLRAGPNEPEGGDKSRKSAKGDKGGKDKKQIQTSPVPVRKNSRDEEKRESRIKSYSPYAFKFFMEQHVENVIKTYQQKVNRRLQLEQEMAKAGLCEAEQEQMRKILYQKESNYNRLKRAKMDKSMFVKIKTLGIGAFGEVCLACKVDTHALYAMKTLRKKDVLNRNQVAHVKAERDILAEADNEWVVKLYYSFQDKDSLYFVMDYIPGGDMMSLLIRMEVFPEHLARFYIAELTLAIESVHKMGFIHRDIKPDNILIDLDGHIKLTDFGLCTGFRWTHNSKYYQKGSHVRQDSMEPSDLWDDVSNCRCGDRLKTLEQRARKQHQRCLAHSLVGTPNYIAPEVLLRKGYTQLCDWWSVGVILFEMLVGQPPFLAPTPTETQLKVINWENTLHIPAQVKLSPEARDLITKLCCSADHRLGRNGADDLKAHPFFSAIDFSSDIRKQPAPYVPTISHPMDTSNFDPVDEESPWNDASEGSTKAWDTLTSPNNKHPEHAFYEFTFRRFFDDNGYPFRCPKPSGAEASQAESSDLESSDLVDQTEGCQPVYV
# Assay: KINOMEscan competition binding
# Conditions: read-out: %Inh LATS2
row,SMILES,inhibition at 1 µM [%]
1,O=c1cc(N2CCOCC2)nc2n(Cc3cccc(Cl)c3Cl)c(C3CC3)nn12 [UNC10225469A],27
2,Cn1cc(-c2cnc(N)c3c(-c4ccc5c(c4)CCN5C(=O)Cc4ccccc4)csc23)cn1 [UNC10225012A],23
3,CS(=O)(=O)Cc1ccc(Nc2nccc(-c3c(-c4cccc(NC(=O)C5CCCCC5)c4)nn4ncccc34)n2)cc1 [UNC10225159A],48
4,COc1cccc(OC)c1C(=O)Nc1cccc(-c2nn3ccccc3c2-c2ccnc(Nc3cccc(F)c3)n2)c1 [UNC10225310A],10
5,Cc1ccc(NC(=O)Nc2cccc(C(F)(F)F)c2)cc1 [UNC10225187A],20

# Molecular target: EPHA7 (Homo sapiens, UniProt Q15375)
# Assay: KINOMEscan competition binding
# Conditions: read-out: %Inh EPHA7
row,SMILES,inhibition at 1 µM [%]
1,O=c1cc(N2CCOCC2)nc2n(Cc3cccc(Cl)c3Cl)c(C3CC3)nn12 [UNC10225469A],0
2,Cn1cc(-c2cnc(N)c3c(-c4ccc5c(c4)CCN5C(=O)Cc4ccccc4)csc23)cn1 [UNC10225012A],6
3,CS(=O)(=O)Cc1ccc(Nc2nccc(-c3c(-c4cccc(NC(=O)C5CCCCC5)c4)nn4ncccc34)n2)cc1 [UNC10225159A],15
4,COc1cccc(OC)c1C(=O)Nc1cccc(-c2nn3ccccc3c2-c2ccnc(Nc3cccc(F)c3)n2)c1 [UNC10225310A],14
5,Cc1ccc(NC(=O)Nc2cccc(C(F)(F)F)c2)cc1 [UNC10225187A],2

# Molecular target: FER (Homo sapiens, UniProt P16591)
# Assay: KINOMEscan competition binding
# Conditions: read-out: %Inh FER
row,SMILES,inhibition at 1 µM [%]
1,O=c1cc(N2CCOCC2)nc2n(Cc3cccc(Cl)c3Cl)c(C3CC3)nn12 [UNC10225469A],3
2,Cn1cc(-c2cnc(N)c3c(-c4ccc5c(c4)CCN5C(=O)Cc4ccccc4)csc23)cn1 [UNC10225012A],10
3,CS(=O)(=O)Cc1ccc(Nc2nccc(-c3c(-c4cccc(NC(=O)C5CCCCC5)c4)nn4ncccc34)n2)cc1 [UNC10225159A],8
4,COc1cccc(OC)c1C(=O)Nc1cccc(-c2nn3ccccc3c2-c2ccnc(Nc3cccc(F)c3)n2)c1 [UNC10225310A],24
5,Cc1ccc(NC(=O)Nc2cccc(C(F)(F)F)c2)cc1 [UNC10225187A],0

# Molecular target: BUB1 (Homo sapiens, UniProt O43683)
# Sequence (O43683 whole entry): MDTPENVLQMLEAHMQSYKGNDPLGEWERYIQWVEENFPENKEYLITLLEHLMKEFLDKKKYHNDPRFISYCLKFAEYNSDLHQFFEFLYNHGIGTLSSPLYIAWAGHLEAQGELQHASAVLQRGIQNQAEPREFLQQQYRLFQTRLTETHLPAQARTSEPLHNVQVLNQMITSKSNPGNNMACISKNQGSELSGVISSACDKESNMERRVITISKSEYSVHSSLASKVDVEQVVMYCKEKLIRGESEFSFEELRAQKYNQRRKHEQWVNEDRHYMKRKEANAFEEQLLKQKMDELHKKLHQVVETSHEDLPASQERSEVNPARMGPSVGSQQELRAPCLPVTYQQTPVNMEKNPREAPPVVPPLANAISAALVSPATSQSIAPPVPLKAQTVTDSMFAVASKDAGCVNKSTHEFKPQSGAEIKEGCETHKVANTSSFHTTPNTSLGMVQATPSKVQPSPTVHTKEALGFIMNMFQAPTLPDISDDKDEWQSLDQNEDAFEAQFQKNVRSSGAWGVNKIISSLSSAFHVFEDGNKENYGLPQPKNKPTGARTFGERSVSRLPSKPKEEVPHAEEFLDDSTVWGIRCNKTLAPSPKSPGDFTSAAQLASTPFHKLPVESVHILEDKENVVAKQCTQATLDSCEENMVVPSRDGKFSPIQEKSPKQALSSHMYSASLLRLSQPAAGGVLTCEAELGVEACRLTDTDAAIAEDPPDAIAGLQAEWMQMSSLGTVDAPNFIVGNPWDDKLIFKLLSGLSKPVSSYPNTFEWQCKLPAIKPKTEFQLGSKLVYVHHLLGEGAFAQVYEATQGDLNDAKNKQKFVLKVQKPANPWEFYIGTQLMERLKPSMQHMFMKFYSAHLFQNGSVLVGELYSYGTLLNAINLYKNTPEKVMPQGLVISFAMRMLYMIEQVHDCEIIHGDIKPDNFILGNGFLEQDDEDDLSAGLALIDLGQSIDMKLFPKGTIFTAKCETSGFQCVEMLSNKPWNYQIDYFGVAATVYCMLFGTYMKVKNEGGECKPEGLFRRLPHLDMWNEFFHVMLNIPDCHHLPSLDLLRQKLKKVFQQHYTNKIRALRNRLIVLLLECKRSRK
# Assay: KINOMEscan competition binding
# Conditions: read-out: %Inh BUB1
row,SMILES,inhibition at 1 µM [%]
1,O=c1cc(N2CCOCC2)nc2n(Cc3cccc(Cl)c3Cl)c(C3CC3)nn12 [UNC10225469A],0
2,Cn1cc(-c2cnc(N)c3c(-c4ccc5c(c4)CCN5C(=O)Cc4ccccc4)csc23)cn1 [UNC10225012A],0
3,CS(=O)(=O)Cc1ccc(Nc2nccc(-c3c(-c4cccc(NC(=O)C5CCCCC5)c4)nn4ncccc34)n2)cc1 [UNC10225159A],98.7
4,COc1cccc(OC)c1C(=O)Nc1cccc(-c2nn3ccccc3c2-c2ccnc(Nc3cccc(F)c3)n2)c1 [UNC10225310A],11
5,Cc1ccc(NC(=O)Nc2cccc(C(F)(F)F)c2)cc1 [UNC10225187A],0

# Molecular target: T2, DCAMKL2 (Homo sapiens, UniProt Q8N568)
# T2 sequence (Q8N568 1-766): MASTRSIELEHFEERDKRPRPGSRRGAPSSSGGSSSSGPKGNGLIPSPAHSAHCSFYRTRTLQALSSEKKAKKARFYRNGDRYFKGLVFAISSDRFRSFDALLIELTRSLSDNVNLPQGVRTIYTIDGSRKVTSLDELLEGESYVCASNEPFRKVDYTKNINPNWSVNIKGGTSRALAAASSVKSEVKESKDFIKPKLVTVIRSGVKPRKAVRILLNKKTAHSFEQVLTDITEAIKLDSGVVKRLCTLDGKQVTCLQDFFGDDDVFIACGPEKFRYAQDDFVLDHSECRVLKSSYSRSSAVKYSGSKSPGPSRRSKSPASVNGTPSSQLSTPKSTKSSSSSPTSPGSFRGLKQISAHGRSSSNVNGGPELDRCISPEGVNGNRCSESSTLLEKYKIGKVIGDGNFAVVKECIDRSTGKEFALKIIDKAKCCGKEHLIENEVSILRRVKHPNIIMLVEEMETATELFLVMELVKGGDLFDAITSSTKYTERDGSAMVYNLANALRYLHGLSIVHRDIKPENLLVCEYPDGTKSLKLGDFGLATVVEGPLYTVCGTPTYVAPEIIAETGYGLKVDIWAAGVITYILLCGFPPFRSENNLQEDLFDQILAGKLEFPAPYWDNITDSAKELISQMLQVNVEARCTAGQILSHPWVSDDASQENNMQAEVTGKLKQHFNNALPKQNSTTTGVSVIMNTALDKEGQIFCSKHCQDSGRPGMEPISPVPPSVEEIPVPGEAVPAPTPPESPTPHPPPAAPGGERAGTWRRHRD
# Assay: KINOMEscan competition binding
# Conditions: read-out: %Inh DCAMKL2
row,SMILES,inhibition at 1 µM [%]
1,O=c1cc(N2CCOCC2)nc2n(Cc3cccc(Cl)c3Cl)c(C3CC3)nn12 [UNC10225469A],7
2,Cn1cc(-c2cnc(N)c3c(-c4ccc5c(c4)CCN5C(=O)Cc4ccccc4)csc23)cn1 [UNC10225012A],0
3,CS(=O)(=O)Cc1ccc(Nc2nccc(-c3c(-c4cccc(NC(=O)C5CCCCC5)c4)nn4ncccc34)n2)cc1 [UNC10225159A],15
4,COc1cccc(OC)c1C(=O)Nc1cccc(-c2nn3ccccc3c2-c2ccnc(Nc3cccc(F)c3)n2)c1 [UNC10225310A],0
5,Cc1ccc(NC(=O)Nc2cccc(C(F)(F)F)c2)cc1 [UNC10225187A],0

# Molecular target: CIT (Homo sapiens, UniProt O14578)
# Sequence (O14578 whole entry): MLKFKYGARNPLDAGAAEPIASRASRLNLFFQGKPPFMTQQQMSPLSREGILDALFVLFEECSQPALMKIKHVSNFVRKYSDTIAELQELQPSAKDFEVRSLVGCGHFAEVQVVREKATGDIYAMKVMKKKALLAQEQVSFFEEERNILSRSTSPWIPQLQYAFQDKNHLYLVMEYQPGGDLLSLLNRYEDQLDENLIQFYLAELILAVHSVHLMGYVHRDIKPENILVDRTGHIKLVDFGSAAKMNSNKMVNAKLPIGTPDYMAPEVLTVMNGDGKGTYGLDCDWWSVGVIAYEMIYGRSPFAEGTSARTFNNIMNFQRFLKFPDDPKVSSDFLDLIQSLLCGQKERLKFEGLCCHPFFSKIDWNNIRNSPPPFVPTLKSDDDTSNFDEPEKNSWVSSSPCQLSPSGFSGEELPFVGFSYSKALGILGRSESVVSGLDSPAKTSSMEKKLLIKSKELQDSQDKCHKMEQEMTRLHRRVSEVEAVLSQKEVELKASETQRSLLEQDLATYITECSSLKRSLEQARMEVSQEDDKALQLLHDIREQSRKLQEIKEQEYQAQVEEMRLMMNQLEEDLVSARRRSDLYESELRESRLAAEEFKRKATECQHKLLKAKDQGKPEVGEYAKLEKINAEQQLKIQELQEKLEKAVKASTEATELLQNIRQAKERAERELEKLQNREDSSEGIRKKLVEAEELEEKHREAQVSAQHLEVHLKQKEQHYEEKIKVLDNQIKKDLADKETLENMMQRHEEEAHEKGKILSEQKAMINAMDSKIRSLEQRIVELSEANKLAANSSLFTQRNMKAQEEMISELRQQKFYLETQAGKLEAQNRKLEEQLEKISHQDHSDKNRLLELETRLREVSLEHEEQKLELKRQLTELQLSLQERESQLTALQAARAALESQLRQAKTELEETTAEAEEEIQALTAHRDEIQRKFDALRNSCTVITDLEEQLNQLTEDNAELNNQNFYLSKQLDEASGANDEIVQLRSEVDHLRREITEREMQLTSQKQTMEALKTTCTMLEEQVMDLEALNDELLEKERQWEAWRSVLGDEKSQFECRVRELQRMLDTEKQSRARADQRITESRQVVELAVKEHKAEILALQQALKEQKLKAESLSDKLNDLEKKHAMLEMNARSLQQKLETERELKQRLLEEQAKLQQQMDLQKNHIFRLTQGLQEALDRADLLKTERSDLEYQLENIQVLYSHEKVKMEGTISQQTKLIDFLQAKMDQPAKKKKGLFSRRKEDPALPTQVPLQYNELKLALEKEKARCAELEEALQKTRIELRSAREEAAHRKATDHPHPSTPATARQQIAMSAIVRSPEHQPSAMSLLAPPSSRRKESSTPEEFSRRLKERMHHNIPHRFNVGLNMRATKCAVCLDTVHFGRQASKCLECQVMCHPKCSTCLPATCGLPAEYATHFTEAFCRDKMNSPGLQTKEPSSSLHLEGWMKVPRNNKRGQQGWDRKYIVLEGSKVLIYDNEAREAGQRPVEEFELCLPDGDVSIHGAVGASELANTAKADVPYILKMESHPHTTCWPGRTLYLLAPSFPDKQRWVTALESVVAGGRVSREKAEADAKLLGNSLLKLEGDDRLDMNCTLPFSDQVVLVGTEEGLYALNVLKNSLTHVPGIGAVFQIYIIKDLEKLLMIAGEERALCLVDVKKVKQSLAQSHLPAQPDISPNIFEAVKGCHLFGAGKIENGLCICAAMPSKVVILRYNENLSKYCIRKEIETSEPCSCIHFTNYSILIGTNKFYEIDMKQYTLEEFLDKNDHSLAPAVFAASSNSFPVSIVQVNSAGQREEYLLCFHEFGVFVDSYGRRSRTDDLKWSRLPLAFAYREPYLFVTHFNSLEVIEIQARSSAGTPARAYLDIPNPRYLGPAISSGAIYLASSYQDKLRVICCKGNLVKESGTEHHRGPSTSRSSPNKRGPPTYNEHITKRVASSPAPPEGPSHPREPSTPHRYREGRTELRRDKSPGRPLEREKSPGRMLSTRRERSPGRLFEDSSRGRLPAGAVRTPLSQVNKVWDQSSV
# Assay: KINOMEscan competition binding
# Conditions: read-out: %Inh CIT
row,SMILES,inhibition at 1 µM [%]
1,O=c1cc(N2CCOCC2)nc2n(Cc3cccc(Cl)c3Cl)c(C3CC3)nn12 [UNC10225469A],0
2,Cn1cc(-c2cnc(N)c3c(-c4ccc5c(c4)CCN5C(=O)Cc4ccccc4)csc23)cn1 [UNC10225012A],0
3,CS(=O)(=O)Cc1ccc(Nc2nccc(-c3c(-c4cccc(NC(=O)C5CCCCC5)c4)nn4ncccc34)n2)cc1 [UNC10225159A],10
4,COc1cccc(OC)c1C(=O)Nc1cccc(-c2nn3ccccc3c2-c2ccnc(Nc3cccc(F)c3)n2)c1 [UNC10225310A],36
5,Cc1ccc(NC(=O)Nc2cccc(C(F)(F)F)c2)cc1 [UNC10225187A],29

# Molecular target: JAK3(JH1domain-catalytic) (Homo sapiens, UniProt P52333)
# Sequence (P52333 813-1124 limits assumed): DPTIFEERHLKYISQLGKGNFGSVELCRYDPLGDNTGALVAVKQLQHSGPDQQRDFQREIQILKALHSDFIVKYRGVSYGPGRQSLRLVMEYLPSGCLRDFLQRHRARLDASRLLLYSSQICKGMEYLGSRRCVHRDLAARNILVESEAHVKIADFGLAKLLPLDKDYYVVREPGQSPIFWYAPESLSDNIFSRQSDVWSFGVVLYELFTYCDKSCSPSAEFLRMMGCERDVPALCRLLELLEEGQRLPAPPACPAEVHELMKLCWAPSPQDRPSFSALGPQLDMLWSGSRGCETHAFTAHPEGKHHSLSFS
# Assay: KINOMEscan competition binding
# Conditions: read-out: %Inh JAK3(JH1domain-catalytic)
row,SMILES,inhibition at 1 µM [%]
1,O=c1cc(N2CCOCC2)nc2n(Cc3cccc(Cl)c3Cl)c(C3CC3)nn12 [UNC10225469A],0
2,Cn1cc(-c2cnc(N)c3c(-c4ccc5c(c4)CCN5C(=O)Cc4ccccc4)csc23)cn1 [UNC10225012A],0
3,CS(=O)(=O)Cc1ccc(Nc2nccc(-c3c(-c4cccc(NC(=O)C5CCCCC5)c4)nn4ncccc34)n2)cc1 [UNC10225159A],43
4,COc1cccc(OC)c1C(=O)Nc1cccc(-c2nn3ccccc3c2-c2ccnc(Nc3cccc(F)c3)n2)c1 [UNC10225310A],0
5,Cc1ccc(NC(=O)Nc2cccc(C(F)(F)F)c2)cc1 [UNC10225187A],0

# Molecular target: CSNK2A1 (Homo sapiens, UniProt P68400)
# Sequence (P68400 whole entry): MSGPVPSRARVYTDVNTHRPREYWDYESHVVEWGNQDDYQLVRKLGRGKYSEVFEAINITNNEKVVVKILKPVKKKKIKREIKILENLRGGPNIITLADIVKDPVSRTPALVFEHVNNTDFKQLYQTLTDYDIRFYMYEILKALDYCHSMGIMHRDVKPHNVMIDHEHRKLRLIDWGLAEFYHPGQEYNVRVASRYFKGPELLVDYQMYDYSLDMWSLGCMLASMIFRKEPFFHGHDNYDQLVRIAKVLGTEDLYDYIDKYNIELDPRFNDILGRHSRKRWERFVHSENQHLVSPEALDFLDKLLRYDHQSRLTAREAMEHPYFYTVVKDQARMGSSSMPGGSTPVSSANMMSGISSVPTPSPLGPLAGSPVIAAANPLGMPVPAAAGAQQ
# Assay: KINOMEscan competition binding
# Conditions: read-out: %Inh CSNK2A1
row,SMILES,inhibition at 1 µM [%]
1,O=c1cc(N2CCOCC2)nc2n(Cc3cccc(Cl)c3Cl)c(C3CC3)nn12 [UNC10225469A],16
2,Cn1cc(-c2cnc(N)c3c(-c4ccc5c(c4)CCN5C(=O)Cc4ccccc4)csc23)cn1 [UNC10225012A],0
3,CS(=O)(=O)Cc1ccc(Nc2nccc(-c3c(-c4cccc(NC(=O)C5CCCCC5)c4)nn4ncccc34)n2)cc1 [UNC10225159A],17
4,COc1cccc(OC)c1C(=O)Nc1cccc(-c2nn3ccccc3c2-c2ccnc(Nc3cccc(F)c3)n2)c1 [UNC10225310A],0
5,Cc1ccc(NC(=O)Nc2cccc(C(F)(F)F)c2)cc1 [UNC10225187A],1

# Molecular target: CDK8 (Homo sapiens, UniProt P49336)
# Sequence (P49336 whole entry): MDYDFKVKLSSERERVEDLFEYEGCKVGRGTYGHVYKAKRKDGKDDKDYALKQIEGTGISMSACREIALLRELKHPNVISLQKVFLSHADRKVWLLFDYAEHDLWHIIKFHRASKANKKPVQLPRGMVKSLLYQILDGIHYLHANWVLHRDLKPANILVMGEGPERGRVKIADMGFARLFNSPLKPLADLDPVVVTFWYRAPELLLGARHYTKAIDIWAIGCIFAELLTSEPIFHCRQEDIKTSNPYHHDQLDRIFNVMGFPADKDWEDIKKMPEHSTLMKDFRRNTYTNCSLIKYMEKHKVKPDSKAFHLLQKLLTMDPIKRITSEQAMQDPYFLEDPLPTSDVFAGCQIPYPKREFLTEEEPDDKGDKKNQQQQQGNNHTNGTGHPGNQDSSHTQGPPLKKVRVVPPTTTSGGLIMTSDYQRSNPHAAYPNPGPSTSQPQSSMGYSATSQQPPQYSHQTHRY
# Assay: KINOMEscan competition binding
# Conditions: read-out: %Inh CDK8
row,SMILES,inhibition at 1 µM [%]
1,O=c1cc(N2CCOCC2)nc2n(Cc3cccc(Cl)c3Cl)c(C3CC3)nn12 [UNC10225469A],0
2,Cn1cc(-c2cnc(N)c3c(-c4ccc5c(c4)CCN5C(=O)Cc4ccccc4)csc23)cn1 [UNC10225012A],19
3,CS(=O)(=O)Cc1ccc(Nc2nccc(-c3c(-c4cccc(NC(=O)C5CCCCC5)c4)nn4ncccc34)n2)cc1 [UNC10225159A],0
4,COc1cccc(OC)c1C(=O)Nc1cccc(-c2nn3ccccc3c2-c2ccnc(Nc3cccc(F)c3)n2)c1 [UNC10225310A],0
5,Cc1ccc(NC(=O)Nc2cccc(C(F)(F)F)c2)cc1 [UNC10225187A],0

# Molecular target: CDK4-cyclinD1 (Homo sapiens, UniProt P11802)
# Sequence (P11802 whole entry): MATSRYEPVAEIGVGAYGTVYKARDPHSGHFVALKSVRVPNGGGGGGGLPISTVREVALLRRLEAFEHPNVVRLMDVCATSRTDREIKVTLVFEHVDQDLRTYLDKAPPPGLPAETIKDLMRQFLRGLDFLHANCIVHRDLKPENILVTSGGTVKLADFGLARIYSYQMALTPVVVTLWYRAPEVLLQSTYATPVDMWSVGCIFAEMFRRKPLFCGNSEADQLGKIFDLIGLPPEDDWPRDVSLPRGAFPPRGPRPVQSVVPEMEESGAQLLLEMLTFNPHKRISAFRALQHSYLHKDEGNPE
# Sequence (P24385 whole entry partner): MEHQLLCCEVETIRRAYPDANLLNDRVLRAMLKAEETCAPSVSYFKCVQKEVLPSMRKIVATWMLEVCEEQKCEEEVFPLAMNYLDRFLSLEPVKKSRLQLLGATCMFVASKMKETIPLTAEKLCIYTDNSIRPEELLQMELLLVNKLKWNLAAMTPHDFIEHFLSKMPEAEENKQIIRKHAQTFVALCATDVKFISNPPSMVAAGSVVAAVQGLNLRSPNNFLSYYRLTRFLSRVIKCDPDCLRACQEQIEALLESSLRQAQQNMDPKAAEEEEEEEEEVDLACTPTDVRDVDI
# Assay: KINOMEscan competition binding
# Conditions: read-out: %Inh CDK4-cyclinD1
row,SMILES,inhibition at 1 µM [%]
1,O=c1cc(N2CCOCC2)nc2n(Cc3cccc(Cl)c3Cl)c(C3CC3)nn12 [UNC10225469A],0
2,Cn1cc(-c2cnc(N)c3c(-c4ccc5c(c4)CCN5C(=O)Cc4ccccc4)csc23)cn1 [UNC10225012A],0
3,CS(=O)(=O)Cc1ccc(Nc2nccc(-c3c(-c4cccc(NC(=O)C5CCCCC5)c4)nn4ncccc34)n2)cc1 [UNC10225159A],15
4,COc1cccc(OC)c1C(=O)Nc1cccc(-c2nn3ccccc3c2-c2ccnc(Nc3cccc(F)c3)n2)c1 [UNC10225310A],0
5,Cc1ccc(NC(=O)Nc2cccc(C(F)(F)F)c2)cc1 [UNC10225187A],0

# Source: PMC5540273, “Progress towards a public chemogenomic set for protein kinases and a call for contributions” (PLoS ONE, 2017)
